According to patent publication US9718790B2, “Triazine derivative and pharmaceutical composition having an analgesic activity comprising the same” (SHIONOGI & CO., LTD., priority 2010, dated 2017):

Molecular target: human P2X3 receptor (Homo sapiens (Human), UniProt P56373)
Test: Evaluation of human P2X3 receptor inhibitory activity (Fluo-3 calcium fluorescence, FDSS 3000, ATP stimulation);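 note: stimulus was 50 nM ATP with fluorescence followed for 3 min, and the response per well was peak post-ATP fluorescence divided by the reading at measurement start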
Format: cell-based
Conditions: C6BU-1 cells stably expressing human P2X3 receptor

Chain of human P2X3 receptor (P56373 whole entry): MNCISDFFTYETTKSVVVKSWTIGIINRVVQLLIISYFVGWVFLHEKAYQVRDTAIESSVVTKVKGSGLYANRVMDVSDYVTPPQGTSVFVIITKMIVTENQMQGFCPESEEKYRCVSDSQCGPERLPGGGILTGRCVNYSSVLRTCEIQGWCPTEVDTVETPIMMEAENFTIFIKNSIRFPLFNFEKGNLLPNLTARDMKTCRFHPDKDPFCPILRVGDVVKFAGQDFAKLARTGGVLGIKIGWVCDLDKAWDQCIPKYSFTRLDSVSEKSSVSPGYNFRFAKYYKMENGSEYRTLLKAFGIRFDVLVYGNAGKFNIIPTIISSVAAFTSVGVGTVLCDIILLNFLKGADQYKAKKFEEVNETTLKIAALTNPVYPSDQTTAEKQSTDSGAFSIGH

SMILES | IC50 (Fluo-3 fluorescence, FDSS 3000) | IC50
C[C@@H](Cn1c(=O)[nH]/c(=N\c2ccc(OC(F)F)cc2)n(Cc2ccc(Cl)cc2)c1=O)C(=O)O [Compound I-1162] | 179 nM | 
Cc1cc(/N=c2\[nH]c(=O)n([C@H](C)[C@@H](C)C(=O)N[C@H](C)[C@@H](O)c3ccccc3)c(=O)n2Cc2ccc(Cl)cc2)ccc1OC(C)C [Compound I-1163] | 823 nM | 
COC(=O)[C@@H](C)Cn1c(=O)[nH]/c(=N\c2ccc(OC(F)F)cc2)n(Cc2ccc(Cl)cc2)c1=O [Compound I-1166] | 126 nM | 
CCOC(=O)CCn1c(=O)[nH]/c(=N\c2ccc(OC(C)C)c(Br)c2)n(Cc2ccc(C)cc2)c1=O [Compound I-1168] | 4 nM | 
COC(=O)[C@@H](C)Cn1c(=O)[nH]/c(=N\c2ccc(C=C(C)C)c(F)c2)n(Cc2ccc(C)cc2)c1=O [Compound I-1171] | 25 nM | 
COC(=O)[C@@H](C)Cn1c(=O)[nH]/c(=N\c2ccc(CN(C)C)c(Cl)c2)n(Cc2ccc(C)cc2)c1=O [Compound I-1172] | 97 nM | 
CCOc1ccc(/N=c2\[nH]c(=O)n(C[C@H](C)C(=O)OC)c(=O)n2Cc2ccc(C)cc2)cc1Br [Compound I-1173] | 9 nM | 
CC(C)=Cc1ccc(/N=c2\[nH]c(=O)n(C[C@H](C)C(=O)O)c(=O)n2Cc2ccc(C)cc2)cc1F [Compound I-1174] | 27 nM | 
Cc1ccc(Cn2c(=O)n(C[C@H](C)C(=O)O)c(=O)[nH]/c2=N\c2ccc(CN(C)C)c(Cl)c2)cc1 [Compound I-1177] | 273 nM | 
Cc1ccc(Cn2c(=O)n(CCC(=O)O)c(=O)[nH]/c2=N\c2ccc(OC(C)C)c(Br)c2)cc1 [Compound I-1178] | 17 nM | 
CCOc1ccc(/N=c2\[nH]c(=O)n(C[C@H](C)C(=O)O)c(=O)n2Cc2ccc(C)cc2)cc1Br [Compound I-1179] | 33 nM | 
COC(=O)[C@@H](C)Cn1c(=O)[nH]/c(=N\c2ccc(OC3CCCCC3)nc2)n(Cc2ccc(C)cc2)c1=O [Compound I-1184] | 138 nM | 
COC(=O)[C@@H](C)Cn1c(=O)[nH]/c(=N\c2ccc(OC3CCCC3)nc2)n(Cc2ccc(C)cc2)c1=O [Compound I-1185] | 116 nM | 
COC(=O)[C@@H](C)Cn1c(=O)[nH]/c(=N\c2ccc(OC3CCCC3)cc2)n(Cc2ccc(C)cc2)c1=O [Compound I-1186] | 33 nM | 
COC(=O)[C@@H](C)Cn1c(=O)[nH]/c(=N\c2ccc(OC3CCC3)nc2)n(Cc2ccc(C)cc2)c1=O [Compound I-1187] | 58 nM | 
Cc1ccc(Cn2c(=O)n(C[C@H](C)C(=O)O)c(=O)[nH]/c2=N\c2ccc(OC3CCCCC3)nc2)cc1 [Compound I-1188] |  | 131 nM
Cc1ccc(Cn2c(=O)n(C[C@H](C)C(=O)O)c(=O)[nH]/c2=N\c2ccc(OC3CCCC3)cc2)cc1 [Compound I-1189] |  | 33 nM
C=Cc1cc(/N=c2\[nH]c(=O)n(CCC(=O)OCC)c(=O)n2Cc2ccc(C)cc2)ccc1OC(C)C [Compound I-1190] |  | 5 nM
C=Cc1cc(/N=c2\[nH]c(=O)n(C[C@H](C)C(=O)OC)c(=O)n2Cc2ccc(C)cc2)ccc1OCC [Compound I-1191] |  | 22 nM
C=Cc1cc(/N=c2\[nH]c(=O)n(CCC(=O)O)c(=O)n2Cc2ccc(C)cc2)ccc1OC(C)C [Compound I-1192] |  | 20 nM
COC(=O)[C@@H](C)Cn1c(=O)[nH]/c(=N\c2ccc(/C=C/C3CC3)cc2)n(Cc2ccc(C)cc2)c1=O [Compound I-1193] |  | 40 nM
C=Cc1cc(/N=c2\[nH]c(=O)n(C[C@H](C)C(=O)O)c(=O)n2Cc2ccc(C)cc2)ccc1OCC [Compound I-1194] |  | 31 nM

SMILES | IC50 (Fluo-3 fluorescence, FDSS 3000) | IC50
COC(=O)[C@@H](C)Cn1c(=O)[nH]/c(=N\c2ccc(Br)c(OC)c2)n(Cc2ccc(C)cc2)c1=O [Compound I-1195] |  | 221 nM
CCc1cc(/N=c2\[nH]c(=O)n(CCC(=O)O)c(=O)n2Cc2ccc(C)cc2)ccc1OC(C)C [Compound I-1199] |  | 36 nM
Cc1ccc(Cn2c(=O)n(C[C@H](C)C(=O)O)c(=O)[nH]/c2=N\c2ccc(/C=C/C3CC3)cc2)cc1 [Compound I-1200] |  | 45 nM
COC(=O)[C@@H](C)Cn1c(=O)[nH]/c(=N\c2cccc(OC)c2)n(Cc2ccc(C)cc2)c1=O [Compound I-1201] |  | 788 nM
COC(=O)[C@@H](C)Cn1c(=O)[nH]/c(=N\c2ccc(CCC3CC3)cc2)n(Cc2ccc(C)cc2)c1=O [Compound I-1202] |  | 93 nM
CCCCCc1ccc(/N=c2\[nH]c(=O)n(C[C@H](C)C(=O)OC)c(=O)n2Cc2ccc(C)cc2)cc1 [Compound I-1203] |  | 532 nM
CCOC(=O)CCn1c(=O)[nH]/c(=N\c2ccc(Oc3cccnc3)cc2)n(Cc2ccc(Cl)cc2)c1=O [Compound I-1204] |  | 5 nM
CCOC(=O)CCn1c(=O)[nH]/c(=N\c2ccc(Oc3ccncc3)cc2)n(Cc2ccc(Cl)cc2)c1=O [Compound I-1205] |  | 2 nM
O=C(O)CCn1c(=O)[nH]/c(=N\c2ccc(Oc3cccnc3)cc2)n(Cc2ccc(Cl)cc2)c1=O [Compound I-1206] |  | 43 nM
O=C(O)CCn1c(=O)[nH]/c(=N\c2ccc(Oc3ccncc3)cc2)n(Cc2ccc(Cl)cc2)c1=O [Compound I-1207] |  | 15 nM
COC(=O)[C@@H](C)Cn1c(=O)[nH]/c(=N\c2ccc(Oc3cccnc3C)cc2)n(Cc2ccc(C)cc2)c1=O [Compound I-1208] |  | 21 nM
CCCc1ccc(/N=c2\[nH]c(=O)n(C[C@H](C)C(=O)OC)c(=O)n2Cc2ccc(C)cc2)cc1C [Compound I-1210] |  | 37 nM
CCCc1ccc(/N=c2\[nH]c(=O)n(C[C@H](C)C(=O)OC)c(=O)n2Cc2ccc(Cl)cc2)cc1C [Compound I-1211] |  | 30 nM
CCCc1ccc(/N=c2\[nH]c(=O)n(C[C@H](C)C(=O)O)c(=O)n2Cc2ccc(C)cc2)cc1C [Compound I-1212] |  | 90 nM
CCCc1ccc(/N=c2\[nH]c(=O)n(C[C@H](C)C(=O)O)c(=O)n2Cc2ccc(Cl)cc2)cc1C [Compound I-1213] |  | 104 nM
Cc1ccc(Cn2c(=O)n(C[C@H](C)C(=O)O)c(=O)[nH]/c2=N\c2ccc(CCC3CC3)cc2)cc1 [Compound I-1214] |  | 70 nM
CCCc1ccc(/N=c2\[nH]c(=O)n(CCC(=O)OCC)c(=O)n2Cc2ccc(C)cc2)cc1C [Compound I-1215] |  | 27 nM
CCOC(=O)CCn1c(=O)[nH]/c(=N\c2ccc(CC(C)C)c(C)c2)n(Cc2ccc(C)cc2)c1=O [Compound I-1216] |  | 13 nM
COC(=O)[C@@H](C)Cn1c(=O)[nH]/c(=N\c2ccc(OC3CCC3)cc2)n(Cc2ccc(C)cc2)c1=O [Compound I-1217] |  | 5 nM
COC(=O)[C@@H](C)Cn1c(=O)[nH]/c(=N\c2ccc(OC3COC3)cc2)n(Cc2ccc(C)cc2)c1=O [Compound I-1218] |  | 61 nM
COC(=O)[C@@H](C)Cn1c(=O)[nH]/c(=N\c2ccc(OC3CCCCC3)cc2)n(Cc2ccc(C)cc2)c1=O [Compound I-1219] |  | 29 nM
Cc1ccc(Cn2c(=O)n(C[C@H](C)C(=O)O)c(=O)[nH]/c2=N\c2ccc(OC3CCC3)cc2)cc1 [Compound I-1220] |  | 13 nM

SMILES | IC50 (Fluo-3 fluorescence, FDSS 3000) | IC50
Cc1ccc(Cn2c(=O)n(C[C@H](C)C(=O)O)c(=O)[nH]/c2=N\c2ccc(OC3COC3)cc2)cc1 [Compound I-1221] |  | 117 nM
Cc1ccc(Cn2c(=O)n(C[C@H](C)C(=O)O)c(=O)[nH]/c2=N\c2ccc(OC3CCCCC3)cc2)cc1 [Compound I-1222] |  | 17 nM
CCCc1ccc(/N=c2\[nH]c(=O)n(CCC(=O)O)c(=O)n2Cc2ccc(C)cc2)cc1C [Compound I-1223] |  | 297 nM
Cc1ccc(Cn2c(=O)n(CCC(=O)O)c(=O)[nH]/c2=N\c2ccc(CC(C)C)c(C)c2)cc1 [Compound I-1224] |  | 54 nM
Cc1ccc(Cn2c(=O)n(C[C@H](C)C(=O)O)c(=O)[nH]/c2=N\c2ccc(OC3CCCC3)nc2)cc1 [Compound I-1226] |  | 122 nM
Cc1ccc(Cn2c(=O)n(CCC(=O)O)c(=O)[nH]/c2=N\c2ccc(Oc3cccnc3)cc2)cc1 [Compound I-1227] |  | 30 nM
Cc1ccc(Cn2c(=O)n(CCC(=O)O)c(=O)[nH]/c2=N\c2ccc(Oc3ccncc3)cc2)cc1 [Compound I-1228] |  | 9 nM
CCOC(=O)CCn1c(=O)[nH]/c(=N\c2ccc(Oc3cccnc3)cc2)n(Cc2ccc(C)cc2)c1=O [Compound I-1229] |  | 4 nM
CCOC(=O)CCn1c(=O)[nH]/c(=N\c2ccc(Oc3ccncc3)cc2)n(Cc2ccc(C)cc2)c1=O [Compound I-1230] |  | 4 nM
Cc1ccc(Cn2c(=O)n(C[C@H](C)C(=O)O)c(=O)[nH]/c2=N\c2ccc(Oc3cccnc3C)cc2)cc1 [Compound I-1231] |  | 36 nM
COC(=O)[C@@H](C)Cn1c(=O)[nH]/c(=N\c2ccc(N3CCCCCC3)cc2)n(Cc2ccc(Cl)cc2)c1=O [Compound I-1233] |  | 325 nM
COC(=O)[C@@H](C)Cn1c(=O)[nH]/c(=N\c2ccc(N3CCCCCC3)cc2)n(Cc2ccc(C)cc2)c1=O [Compound I-1234] |  | 230 nM
C[C@@H](Cn1c(=O)[nH]/c(=N\c2ccc(N3CCCCCC3)cc2)n(Cc2ccc(Cl)cc2)c1=O)C(=O)O [Compound I-1235] |  | 214 nM
COC(=O)C(C)(C)Cn1c(=O)[nH]/c(=N\c2ccc(OCC3CC3)cc2)n(Cc2ccc(Cl)cc2)c1=O [Compound I-1236] |  | 13 nM
Cc1ccc(Cn2c(=O)n(C[C@H](C)C(=O)O)c(=O)[nH]/c2=N\c2ccc(N3CCCCCC3)cc2)cc1 [Compound I-1237] |  | 183 nM
CCOC(=O)CCCn1c(=O)[nH]/c(=N\c2ccc(Oc3ccncc3)cc2)n(Cc2ccc(C)cc2)c1=O [Compound I-1238] |  | 2 nM
CCOC(=O)CCCn1c(=O)[nH]/c(=N\c2ccc(O)cc2)n(Cc2ccc(C)cc2)c1=O [Compound I-1239] |  | 732 nM
COC(=O)[C@@H](C)Cn1c(=O)[nH]/c(=N\c2ccc(Oc3cc(C)nc(C)c3)cc2)n(Cc2ccc(C)cc2)c1=O [Compound I-1240] |  | 18 nM
COC(=O)[C@@H](C)Cn1c(=O)[nH]/c(=N\c2ccc(Cc3ccncc3)cc2)n(Cc2ccc(C)cc2)c1=O [Compound I-1241] |  | 108 nM
COC(=O)C(C)(C)Cn1c(=O)[nH]/c(=N\c2ccc(OCC3CC3)cc2)n(Cc2ccc(C)cc2)c1=O [Compound I-1242] |  | 15 nM
Cc1ccc(Cn2c(=O)n(CCCC(=O)O)c(=O)[nH]/c2=N\c2ccc(Oc3ccncc3)cc2)cc1 [Compound I-1243] |  | 12 nM
